Literature values as cited in patent US10285958B2, “Genotype- or phenotype-based drug formulation” (BAYER AKTIENGESELLSCHAFT, priority 2012, dated 2019).
Where two headings read alike, the source gives them in different places.

Columns and labels:
[1] = biological target: polymorphic cytochrome P450 (CYP) 2D6 (Homo sapiens, UniProt P10635); settings: humans
Chain of polymorphic cytochrome P450 (CYP) 2D6 (P10635 whole entry): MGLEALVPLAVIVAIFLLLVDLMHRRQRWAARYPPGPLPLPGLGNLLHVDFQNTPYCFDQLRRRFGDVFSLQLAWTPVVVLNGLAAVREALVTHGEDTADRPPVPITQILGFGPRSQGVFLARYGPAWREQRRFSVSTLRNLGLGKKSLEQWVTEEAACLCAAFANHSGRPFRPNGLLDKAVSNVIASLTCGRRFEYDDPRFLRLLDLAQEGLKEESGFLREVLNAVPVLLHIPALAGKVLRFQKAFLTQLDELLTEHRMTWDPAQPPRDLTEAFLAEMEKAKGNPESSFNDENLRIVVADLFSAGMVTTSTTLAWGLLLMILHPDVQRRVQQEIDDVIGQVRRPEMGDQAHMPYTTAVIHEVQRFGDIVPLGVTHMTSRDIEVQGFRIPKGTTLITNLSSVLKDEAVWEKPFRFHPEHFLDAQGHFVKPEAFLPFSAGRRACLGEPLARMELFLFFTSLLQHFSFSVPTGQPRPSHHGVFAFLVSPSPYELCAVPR

For CC/C(=C(\c1ccccc1)c1ccc(OCCN(C)C)cc1)c1ccccc1 [tamoxifen], the “time until steady-state concentration of endoxifen is achieved” value (standard dosage 20 mg of tamoxifen, European patients of CYP2D6 EM genotype or phenotype) is given as “about 80 days” and the “endoxifen concentrations after increased tamoxifen dose” value (up to 40 mg of tamoxifen per day as two individual doses, CYP2D6 IMs and PMs, versus EMs on 20 mg) is given as “did not lead to the endoxifen concentrations observed in CYP2D6 EMs”.
For CC/C(=C(\c1ccc(O)cc1)c1ccc(OCCNC)cc1)c1ccccc1 [endoxifen], the “endoxifen concentration in blood under tamoxifen therapy” value (CYP2D6 IM, versus EM or UM phenotype) is listed as “distinctly below” and the “endoxifen concentration in blood under tamoxifen therapy” value (CYP2D6 PM) is listed as “very low”.
For CC/C(=C(\c1ccccc1)c1ccc(OCCNC)cc1)c1ccccc1 [N-desmethyltamoxifen], the “formation of endoxifen from N-desmethyltamoxifen via CYP2D6” value [1] is given as “exclusively”.
